According to patent US11414436B2, “Non-coordinating anion type activators containing cation having large alkyl groups” (ExxonMobil Chemical Patents Inc., priority 2018, dated 2022):
Several values for one entry are separate records, joined by “and”; a condition that tells them apart may be missing. Identical values can stand only once.

Columns and labels:
[1] = Propylene homopolymerization in parallel pressure reactor, MCN-1 with ammonium borate activators; conditions: for activity: isohexane; for average catalyst activity, comparison of the four activators (FIG. 6): MCN-1, polypropylene at 100° C., Table 7 runs
[2] = Ethylene-octene copolymerization in parallel pressure reactor, non-metallocene catalyst CAT-1; conditions: catalyst CAT-1 20 nmol; activator 1.1 equiv; 100° C.; 135 psi; 1-octene 100 uL; TNOAL 0.5 umol
Method: (§1) Solutions of the metal complexes and activators were prepared in a drybox using toluene or methylcyclohexane. Concentrations were typically 0.2 mmol/L. Tri-n-octylaluminum (TNOAL, neat, AkzoNobel) was typically used as a scavenger. Concentration of the TNOAL solution in toluene ranged from 0.5 to 2.0 mmol/L.
(§2) Polymerizations were carried out in a parallel pressure reactor, as generally described in U.S. Pat. Nos. 6,306,658; 6,455,316; 6,489,168; WO 00/09255; and Murphy, V. et al. (2003) “A Fully Integrated High-Throughput Screening Methodology for the Discovery of New Polyolefin Catalysts: Discovery of a New Class of High Temperature Single-Site Group (IV) Copolymerization Catalysts,” J. Am. Chem. Soc., v. 125, pp. 4306-4317, each of which is fully incorporated herein by reference. […] Although the specific quantities, temperatures, solvents, reactants, reactant ratios, pressures, and other variables are frequently changed from one polymerization run to the next, the following describes a typical polymerization performed in a parallel pressure reactor.
(§3) Ethylene-Octene Copolymerization (EO).
(§4) A pre-weighed glass vial insert and disposable stirring paddle were fitted to each reaction vessel of the reactor, which contains 48 individual reaction vessels. The reactor was then closed and purged with ethylene. Each vessel was charged with enough solvent (typically isohexane) to bring the total reaction volume, including the subsequent additions, to the desired volume, typically 5 mL. 1-octene, if required, was injected into the reaction vessel and the reactor was heated to the set temperature and pressurized to the predetermined pressure of ethylene, while stirring at 800 rpm. The aluminum compound (such as tri-n-octylaluminum) in toluene was then injected as scavenger followed by addition of the activator solution (typically 1.0-1.2 molar equivalents).
(§5) The catalyst (and activator solutions for Run A) were all prepared in toluene. The catalyst solution (typically 0.020-0.080 μmol of metal complex) was injected into the reaction vessel and the polymerization was allowed to proceed until a pre-determined amount of ethylene (quench value typically 20 psi) had been used up by the reaction. Alternatively, the reaction may be allowed to proceed for a set amount of time (maximum reaction time typically 30 minutes). Ethylene was added continuously (through the use of computer controlled solenoid valves) to the autoclaves during polymerization to maintain reactor gauge pressure (P setpt, +/−2 psig) and the reactor temperature (T) was monitored and typically maintained within +/−1° C. The reaction was quenched by pressurizing the vessel with compressed air. After the reactor was vented and cooled, the glass vial insert containing the polymer product and solvent was removed from the pressure cell and the inert atmosphere glove box, and the volatile components were removed using a Genevac HT-12 centrifuge and Genevac VC3000D vacuum evaporator operating at elevated temperature and reduced pressure. The vial was then weighed to determine the yield of the polymer product. The resultant polymer was analyzed by Rapid GPC (see below) to determine the molecular weight, by FT-IR (see below) to determine percent octene incorporation, and by DSC (see below) to determine melting point (Tm).
(§6) Equivalence is determined based on the mole equivalents relative to the moles of the transition metal in the catalyst complex.
(§7) Activators of the present disclosure can also be used for activating non-metallocene catalysts for polymerization of olefins. Table 4 illustrates copolymerization of ethylene and octene using activators of the present disclosure and non-metallocene catalysts (CAT-1, CAT-2, CAT-3, and CAT-4).

[3] = Ethylene-octene copolymerization in parallel pressure reactor, non-metallocene catalyst CAT-2; conditions: catalyst CAT-2 20 nmol; activator 1.1 equiv; 100° C.; 135 psi; 1-octene 100 uL; TNOAL 0.5 umol
Method: as §1, §2, §3, §4, §5, §6, §7

[4] = Ethylene-octene copolymerization in parallel pressure reactor, non-metallocene catalyst CAT-3; conditions: catalyst CAT-3 20 nmol; activator 1.1 equiv; 100° C.; 135 psi; 1-octene 100 uL; TNOAL 0.5 umol
Method: as §1, §2, §3, §4, §5, §6, §7

[5] = Ethylene-octene copolymerization in parallel pressure reactor, non-metallocene catalyst CAT-4; conditions: catalyst CAT-4 20 nmol; activator 1.1 equiv; 100° C.; 135 psi; 1-octene 100 uL; TNOAL 0.5 umol
Method: as §1, §2, §3, §4, §5, §6, §7

[6] = Solubility studies of the activators (saturated solution in isohexane or methylcyclohexane); assay type: physicochemical; conditions: methylcyclohexane
[7] = Activator Equiv 1.0, TNOAL 0.25 umol, MCN-1 30 nmol, 85° C., propylene 135 psi
[8] = Activator Equiv 1.0, TNOAL 0.50 umol, MCN-1 30 nmol, 85° C., propylene 135 psi
[9] = Activator Equiv 1.0, TNOAL 0.75 umol, MCN-1 30 nmol, 85° C., propylene 135 psi
[10] = Activator Equiv 1.2, TNOAL 0.25 umol, MCN-1 30 nmol, 85° C., propylene 135 psi
[11] = Activator Equiv 1.2, TNOAL 0.50 umol, MCN-1 30 nmol, 85° C., propylene 135 psi
[12] = Activator Equiv 1.2, TNOAL 0.75 umol, MCN-1 30 nmol, 85° C., propylene 135 psi
[13] = Activator Equiv 1.4, TNOAL 0.25 umol, MCN-1 30 nmol, 85° C., propylene 135 psi
[14] = Activator Equiv 1.4, TNOAL 0.50 umol, MCN-1 30 nmol, 85° C., propylene 135 psi
[15] = Activator Equiv 1.4, TNOAL 0.75 umol, MCN-1 30 nmol, 85° C., propylene 135 psi
[16] = Activator Equiv 1.6, TNOAL 0.25 umol, MCN-1 30 nmol, 85° C., propylene 135 psi
[17] = Activator Equiv 1.6, TNOAL 0.50 umol, MCN-1 30 nmol, 85° C., propylene 135 psi
[18] = Activator Equiv 1.6, TNOAL 0.75 umol, MCN-1 30 nmol, 85° C., propylene 135 psi
[19] = propylene 150 psi, 100° C., MCN-1 = 30 nmol, activator = 33 nmol, TNOAL 500 nmol

## CCCCCCCCCCCCCCCCCC[NH+](CCCCCCCCCCCCCCCCCC)c1ccc(C)cc1.Fc1c(F)c(F)c2c(F)c([B-](c3c(F)c(F)c4c(F)c(F)c(F)c(F)c4c3F)(c3c(F)c(F)c4c(F)c(F)c(F)c(F)c4c3F)c3c(F)c(F)c4c(F)c(F)c(F)c(F)c4c3F)c(F)c(F)c2c1F [DOdTH-BF28, 4-methyl-N,N-dioctadecylbenzenaminium-BF28]
[1]; [7]
  activity: 271 kg/mmol/h and 259 kg/mmol/h and 246 kg/mmol/h
[1]; [8]
  activity: 212 kg/mmol/h and 194 kg/mmol/h and 175 kg/mmol/h
[1]; [9]
  activity: 138 kg/mmol/h and 132 kg/mmol/h and 120 kg/mmol/h
[1]; [10]
  activity: 354 kg/mmol/h and 295 kg/mmol/h and 281 kg/mmol/h
[1]; [11]
  activity: 242 kg/mmol/h and 211 kg/mmol/h and 191 kg/mmol/h
[1]; [12]
  activity: 168 kg/mmol/h and 142 kg/mmol/h and 134 kg/mmol/h
[1]; [13]
  activity: 315 kg/mmol/h and 284 kg/mmol/h and 261 kg/mmol/h
[1]; [14]
  activity: 225 kg/mmol/h and 186 kg/mmol/h and 180 kg/mmol/h
[1]; [15]
  activity: 173 kg/mmol/h and 153 kg/mmol/h and 144 kg/mmol/h
[1]; [16]
  activity: 283 kg/mmol/h and 267 kg/mmol/h
[1]; [17]
  activity: 265 kg/mmol/h and 196 kg/mmol/h and 188 kg/mmol/h
[1]; [18]
  activity: 174 kg/mmol/h and 150 kg/mmol/h and 134 kg/mmol/h
[1]
  average catalyst activity, comparison of the four activators (FIG. 6): somewhat lower activity
[1]; [19]
  activity: 138 kg/mmol/h and 153 kg/mmol/h and 101 kg/mmol/h
[2]
  activity: 3873 kg/mmol/h and 3497 kg/mmol/h
[3]
  activity: 1034 kg/mmol/h and 533 kg/mmol/h
[4]
  activity: 838 kg/mmol/h and 829 kg/mmol/h
[5]
  activity: 48 kg/mmol/h and 46 kg/mmol/h
[6]
  Solubility limit in MeCy (wt % at 25° C.): 35 wt %

## N,N-dimethylanilinium tetrakis(heptafluoronaphthalen-2-yl)borate [DMAH-BF28, reference compound]
[1]; [7]
  activity: 604 kg/mmol/h and 502 kg/mmol/h
[1]; [8]
  activity: 394 kg/mmol/h and 352 kg/mmol/h
[1]; [9]
  activity: 233 kg/mmol/h and 212 kg/mmol/h
[1]; [10]
  activity: 703 kg/mmol/h and 673 kg/mmol/h
[1]; [11]
  activity: 506 kg/mmol/h and 459 kg/mmol/h
[1]; [12]
  activity: 332 kg/mmol/h and 256 kg/mmol/h
[1]; [13]
  activity: 709 kg/mmol/h and 677 kg/mmol/h
[1]; [14]
  activity: 554 kg/mmol/h and 431 kg/mmol/h
[1]; [15]
  activity: 370 kg/mmol/h and 334 kg/mmol/h
[1]; [16]
  activity: 803 kg/mmol/h
[1]; [17]
  activity: 511 kg/mmol/h and 467 kg/mmol/h
[1]; [18]
  activity: 404 kg/mmol/h and 356 kg/mmol/h
[1]
  average catalyst activity, comparison of the four activators (FIG. 6): highest average activities
[1]; [19]
  activity: 175 kg/mmol/h and 231 kg/mmol/h and 160 kg/mmol/h and 121 kg/mmol/h and 211 kg/mmol/h and 188 kg/mmol/h and 190 kg/mmol/h
[1]; propylene, 85 °C, 135 psi, MCN-1 = 20 nmol, activator = 20 nmol, TNOAL 500 nmol
  activity: 138 kg/mmol/h
[2]
  activity: 3494 kg/mmol/h and 3144 kg/mmol/h
[3]
  activity: 1161 kg/mmol/h and 724 kg/mmol/h
[4]
  activity: 808 kg/mmol/h and 691 kg/mmol/h
[5]
  activity: 59 kg/mmol/h and 54 kg/mmol/h
